Source: ChEMBL document CHEMBL3392985, “Dithiocarbamate-thiourea hybrids useful as vaginal microbicides also show reverse transcriptase inhibition: design, synthesis, docking and pharmacokinetic studies” (Bioorg Med Chem Lett, 2015)
Converted amounts (≈) assume the structure as drawn.

Tests used:
[1] = target: Human immunodeficiency virus type 1 reverse transcriptase (Human immunodeficiency virus 1) (UniProt Q72547); assay: Inhibition of HIV-1 reverse transcriptase using digoxigenin/biotin-labeled dUTP as substrate at 100 ug/ml incubated for 1 hr followed by compound washout measured after 1 hr by non-radioactive ELISA relative to control
[2] = Spermicidal activity against human sperm by microscopic analysis; type: functional
[3] = system: Trichomonas vaginalis; assay: Antimicrobial activity against Trichomonas vaginalis after 3 to 48 hrs by trypan blue exclusion assay; type: functional
[4] = organism: Homo sapiens; assay: Ratio of nonoxynol-9 MEC to compound MEC for human sperm; type: functional
[5] = system: HeLa; assay: Cytotoxicity against human HeLa cells assessed as cell viability at 200 ug/ml after 24 hrs by lactate dehydrogenase release assay; type: cell-based
[6] = Toxicity against Lactobacillus acidophilus at 200 ug/ml after 24 hrs
[7] = Stability of the compound in simulated vaginal fluid at 100 ng/ml at pH 2 up to 1 hr by LC/MS/MS analysis; type: ADME; details: buffer, pH 2, 1 h
[8] = Terminal half life in rabbit administered intravaginally after 1 hr; type: ADME, organism-based, Oryctolagus cuniculus; details: in vivo, read-out: beta t1/2 (converted)
[9] = Cmax in rabbit administered administered intravaginally after 1 hr; type: ADME, organism-based, Oryctolagus cuniculus; details: in vivo

SMILES	inhibition [1]	MEC [2]	MIC [3]	Ratio [4]	Activity [5]	Activity [6]	Stability [7]	half-life [8]	Cmax [9]
S=C(NCCc1ccccc1)N1CCN(C(=S)SCc2ccccc2)CC1	11.8%	>2%	62.5 µg/mL (≈ 150 µM)						
CCCSC(=S)N1CCN(C(=S)NC(=O)c2ccccc2)CC1	31.4%	0.025%	62.5 µg/mL (≈ 170 µM)	2	Non-toxic	Non-toxic			
CCCCCCSC(=S)N1CCN(C(=S)Nc2ccccc2)CC1	1.9%	>2%	> 500 µg/mL						
CCCCCCSC(=S)N1CCN(C(=S)Nc2cccnc2)CC1	26.1%	0.05%	125 µg/mL (≈ 327 µM)		Non-toxic	Non-toxic			
CCCSC(=S)N1CCN(C(=S)Nc2cccnc2)CC1	35.4%	0.5%	125 µg/mL (≈ 367 µM)						
O=C(NC(=S)N1CCN(C(=S)SCc2ccccc2)CC1)c1ccccc1	12.3%	1%	62.5 µg/mL (≈ 150 µM)						
CCCCCCCCSC(=S)N1CCN(C(=S)NC(=O)c2ccccc2)CC1	41.3%	0.025%	15.6 µg/mL (≈ 35.5 µM)	2	Non-toxic	Non-toxic	Stable		
S=C(NCc1ccccc1)N1CCN(C(=S)SCc2ccccc2)CC1	9.11%	>2%	125 µg/mL (≈ 311 µM)						
CCCCCCSC(=S)N1CCN(C(=S)NC(=O)c2ccccc2)CC1	23.2%	0.05%	7.78 µg/mL (≈ 19 µM)		Non-toxic	Non-toxic			
CCCCCCSC(=S)N1CCN(C(=S)NCc2ccccc2)CC1	27.3%	>2%	250 µg/mL (≈ 632 µM)						
CCCCSC(=S)N1CCN(C(=S)Nc2cccnc2)CC1	14.9%	>2%	250 µg/mL (≈ 705 µM)						
CCCSC(=S)N1CCN(C(=S)NCc2ccccc2)CC1	20.6%	1%	15.6 µg/mL (≈ 44 µM)						
CCCCSC(=S)N1CCN(C(=S)NCCc2ccccc2)CC1	13.5%	>2%	250 µg/mL (≈ 655 µM)						
CCCCSC(=S)N1CCN(C(=S)NC(=O)c2ccccc2)CC1	27.8%	1%	125 µg/mL (≈ 328 µM)						
CCCCCCCCSC(=S)N1CCN(C(=S)Nc2ccccc2)CC1	24%	1%	125 µg/mL (≈ 305 µM)						
CCCCCCCCCc1ccc(OCCOCCOCCOCCOCCOCCOCCOCCOCCO)cc1 [NONOXYNOL 9]		0.05%	20 µg/mL (≈ 32.4 µM)					1.45 h	4.87 ng/mL
CCCCCCCCSC(=S)N1CCN(C(=S)Nc2cccnc2)CC1	44.7%	2%	62.5 µg/mL (≈ 152 µM)						
CCCCSC(=S)N1CCN(C(=S)Nc2ccccc2)CC1	30.9%	>2%	125 µg/mL (≈ 354 µM)						
CCCCCCCCSC(=S)N1CCN(C(=S)NCc2ccccc2)CC1	36.5%	1%	250 µg/mL (≈ 590 µM)						
CCCSC(=S)N1CCN(C(=S)NCCc2ccccc2)CC1	28.4%	>2%	250 µg/mL (≈ 680 µM)						
CCCSC(=S)N1CCN(C(=S)Nc2ccccc2)CC1	21.5%	>2%	500 µg/mL (≈ 1470 µM)						
S=C(Nc1ccccc1)N1CCN(C(=S)SCc2ccccc2)CC1	21.9%	>2%	250 µg/mL (≈ 645 µM)						
CCCCCCSC(=S)N1CCN(C(=S)NCCc2ccccc2)CC1	14.8%	1%	250 µg/mL (≈ 610 µM)						
S=C(Nc1cccnc1)N1CCN(C(=S)SCc2ccccc2)CC1	25.8%	2%	> 500 µg/mL						
CCCCCCCCSC(=S)N1CCN(C(=S)NCCc2ccccc2)CC1	15.7%	>2%	250 µg/mL (≈ 571 µM)						
CCCCSC(=S)N1CCN(C(=S)NCc2ccccc2)CC1	14.2%	>2%	500 µg/mL (≈ 1360 µM)						
